Measurements published in paper PMC2720784 (Biochemistry, 2009).
Changes are numbered by the printed parent chain.

Columns and labels:
R343V hNCRD = molecular target: T1, R343V hNCRD (Homo sapiens, UniProt P35247, R363V); experiment: Mannan competition assay, R343V; format: binding; settings: for change in affinity of R343V relative to wild-type: competition assays
T1 sequence (P35247 223-375 R363V limits assumed): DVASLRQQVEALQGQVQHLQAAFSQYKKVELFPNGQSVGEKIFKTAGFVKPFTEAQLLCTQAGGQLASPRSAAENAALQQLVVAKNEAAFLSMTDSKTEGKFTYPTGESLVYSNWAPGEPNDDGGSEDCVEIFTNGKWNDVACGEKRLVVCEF

R343A hNCRD = molecular target: T2, R343A hNCRD (Homo sapiens, UniProt P35247, R363A); experiment: Mannan competition assay, R343A; settings: read-out: I50 for inhibition of binding to mannan, one experiment
T2 sequence (P35247 223-375 R363A limits assumed): T1 sequence (P35247 223-375 R363V limits assumed) with V141A

Phil82 IAV [1] = format: binding, influenza A virus
Phil82 IAV [2] = format: cell-based, influenza A virus; settings: n=5
Phil82 IAV [3] = format: cell-based, influenza A virus

Compound: OC[C@H]1OC(O)[C@@H](O)[C@@H](O)[C@@H]1O (stereo partly drawn) [D-mannose]
- change in affinity of R343V relative to wild-type (R343V hNCRD): no significant increase in affinity

Compound: CO[C@H]1O[C@H](CO[C@H]2O[C@H](CO)[C@@H](O)[C@H](O)[C@@H]2O)[C@@H](O)[C@H](O[C@H]2O[C@H](CO)[C@@H](O)[C@H](O)[C@@H]2O)[C@@H]1O [TM core, methyl 3,6-Di-O-(α-D-mannopyranosyl)-α-D-mannopyranoside]
- change in affinity of R343V relative to wild-type (R343V hNCRD): no significant increase in affinity

Compound: OC[C@H]1O[C@H](O[C@@H]2C(O)O[C@H](CO)[C@@H](O)[C@@H]2O)[C@@H](O)[C@@H](O)[C@@H]1O (stereo partly drawn) [alpha1–2 DM, alpha1–2 linked dimannose]
- IC50 (R343A hNCRD): 362 µM
- increase in affinity as compared to wild-type (R343V hNCRD; R343V vs wild-type hNCRD): 7 fold
- change in affinity of R343V relative to wild-type (R343V hNCRD): greatly enhanced binding
- IC50 (R343V hNCRD; read-out: I50 for inhibition of binding to mannan, R343V, n=5): 210 ± 60 µM

Compound: OC[C@H]1O[C@H](O[C@H]2[C@H](O)[C@@H](CO)OC(O)[C@H]2O)[C@@H](O)[C@@H](O)[C@@H]1O (stereo partly drawn) [α1–3 dimannose]
- change in affinity of R343V relative to wild-type (R343V hNCRD): no significant increase in affinity

Compound: OC[C@H]1O[C@H](OC[C@H]2OC(O)[C@@H](O)[C@@H](O)[C@@H]2O)[C@@H](O)[C@@H](O)[C@@H]1O (stereo partly drawn) [α1–6 dimannose]
- change in affinity of R343V relative to wild-type (R343V hNCRD): no significant increase in affinity

Compound: hNCRD Wild type: N-terminally tagged trimeric neck+carbohydrate recognition domain fusion protein of human SP-D, wild type
- binding to IAV, solid phase binding assay (Phil82 IAV [1]): no measurable binding
- HA Inhibitory Concentration (Phil82 IAV [2]): >50 µg/mL
- viral neutralizing activity (Phil82 IAV [3]): lacked
